Data: patent US20240067702A1, “LACTAM-MODIFIED P[…]” (DONGBAO PURPLE STAR (HANGZHOU) BIOPHARMACEUTICAL CO., LTD., priority 2020, published 2024)
*1 amine or outer side, *2 acyl side, *3 side chain or, on linkers, in order; H or OH if unused. Where a SMILES comes first, the peptide text is derived from it. Bridges are numbered along the chain shown (N, C = ends). Side-chain parts run from the residue outwards. [ ]: non-standard residue; d: D form. The star is where a group is joined. C20 diacid = O=C(O)CCCCCCCCCCCCCCCCCCC(=O)*; γGlu = O=C(O)[C@H](CCC(=O)[*:2])N[*:1]; AEEA = NCCOCCOCC(=O)O; Aib = CC(C)(N)C(=O)O

Columns and labels:
GLP-1R = molecular target: T1, GLP-1R (Homo sapiens, UniProt P43220); assay: GLP-1R agonist activity test in vitro (cAMP assay); assay type: cell-based; details: GLP-IR Agonist Activity EC50 (−) 1% HSA, HEK293 host cell; without 1% HSA
T1 construct: host or cells: HEK293
T1 sequence (P43220 24-463): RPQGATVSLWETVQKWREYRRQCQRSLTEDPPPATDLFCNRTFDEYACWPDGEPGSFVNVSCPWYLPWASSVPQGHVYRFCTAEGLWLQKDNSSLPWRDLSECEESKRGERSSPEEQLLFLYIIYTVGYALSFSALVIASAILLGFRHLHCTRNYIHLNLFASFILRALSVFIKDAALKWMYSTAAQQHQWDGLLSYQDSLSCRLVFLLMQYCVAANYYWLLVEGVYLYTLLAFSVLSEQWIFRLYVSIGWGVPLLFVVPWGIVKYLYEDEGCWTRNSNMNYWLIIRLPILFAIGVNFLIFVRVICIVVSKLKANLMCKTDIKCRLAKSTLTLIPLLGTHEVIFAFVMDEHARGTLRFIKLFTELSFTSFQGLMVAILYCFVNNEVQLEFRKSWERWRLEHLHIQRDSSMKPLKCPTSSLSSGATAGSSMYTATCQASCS
Procedure: (§1) The cell strains were constructed by Shanghai WuXi AppTec.
(§2) The test compound was serially diluted 4-fold with 10 points. The initial concentration was 30 μM, and the dilution was completed with Bravo.
(§3) 1) 100 nL of the compound was transferred to OptiPlate-384 plate using Echo.
(§4) 7) The GLP-1R/GIPR cell concentration was diluted to 2.0*10^5/mL with the experimental buffer.
(§5) 8) […] of the diluted cell suspension was transferred into the OptiPlate-384 plate.
(§6) 9) The diluted cell suspension was incubated at room temperature for 30 minutes.
(§7) 2) 10 μL of cAMP detection reagent was added.
(§8) 3) The OptiPlate-384 plate was covered with TopSeal-A film and incubated at room temperature for 60 minutes.
(§9) TopSeal-A was removed and read in EnVision.

GIPR = molecular target: T2, GIPR (Homo sapiens, UniProt P48546); assay: GIPR agonist activity test in vitro (cAMP assay); assay type: cell-based; details: GIPR Agonist Activity EC50 (−) 1% HSA, CHO host cell; without 1% HSA
T2 construct: host or cells: CHO
T2 sequence (P48546 22-466): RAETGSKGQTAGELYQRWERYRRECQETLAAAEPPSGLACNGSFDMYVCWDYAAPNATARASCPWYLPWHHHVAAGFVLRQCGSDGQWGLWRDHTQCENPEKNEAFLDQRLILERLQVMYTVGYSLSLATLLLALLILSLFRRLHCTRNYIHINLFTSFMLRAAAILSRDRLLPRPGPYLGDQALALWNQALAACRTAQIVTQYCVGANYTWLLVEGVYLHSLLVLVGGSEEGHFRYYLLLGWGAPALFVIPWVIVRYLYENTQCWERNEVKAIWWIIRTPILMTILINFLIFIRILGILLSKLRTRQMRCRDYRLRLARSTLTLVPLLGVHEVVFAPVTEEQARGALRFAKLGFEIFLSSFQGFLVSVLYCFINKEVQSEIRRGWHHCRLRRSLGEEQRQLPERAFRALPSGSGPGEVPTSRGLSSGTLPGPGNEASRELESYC
Procedure: as §1, §2, §3, §4, §5, §6, §7, §8, §9

[1] = Pharmacokinetic evaluation in cynomolgus monkeys; assay type: in vivo; details: cynomolgus monkey, plasma, 0.02 mg/kg, single SC 0.02 mpk
Procedure: To test the pharmacokinetics of compounds in cynomolgus monkeys in vivo
The pharmacokinetic characteristics of the compounds in mammals after intravenous injection and subcutaneous injection were tested according to the standard protocol. In the experiment, the candidate compounds were formulated into clear solutions, and a single subcutaneous injection (SC, 0.02 mpk) was given to the cynomolgus monkeys. The vehicle for subcutaneous injection was citrate buffer (20 mM, pH=7). Whole blood was collected and prepared to obtain plasma. Drug concentration was analyzed by LC-MS/MS method, and pharmacokinetic parameters were calculated by Phoenix WinNonlin software.

[2] = Plasma stability (PLS) test, human plasma; assay type: in vitro ADME; details: pH 7.4, 37° C., up to 120 min, read-out: PLS (H/M) T1/2, H
[3] = Plasma stability (PLS) test, mouse plasma; assay type: in vitro ADME; details: pH 7.4, 37° C., up to 120 min, read-out: PLS (H/M) T1/2
Procedure: To study the stability of test compounds in the plasma of normal mice.
1. Before the experiment, the coagulated frozen plasma was thawed in a water bath at 37° C. Plasma was centrifuged at 4000 rpm for 5 min. If there was blood clot, the blood clot was removed and the pH value was adjusted to 7.4±0.1.
2. Preparation of the test compound solution: 100 μM of the solution was prepared by dilution with DMSO.
3. 98 μL of blank control plasma was added to 2 μL of the test compound solution (100 μM), so that the final concentration of the mixed solution of the two reached 2 μM, and the mixed solution was placed in a 37° C. water bath for incubation.
4. At each time point (0, 10, 30, 60, and 120 min), 1(X) μL of H3PO4 solution and 800 μL of stop solution (200 ng/mL of tolbutamide and 200 ng/mL of labetalol in 100% methanol solution) were added to precipitate protein, and mixed thoroughly.
5. The samples were centrifuged at 4000 rpm for 20 min, and 1(X) μL of supernatant was taken from each well for LC-MS/MS analysis.

[4] = Kidney homogenate stability (BHS) test; assay type: in vitro ADME; details: normal mouse kidney homogenate, 37° C.; read-out: BHS (T1/2 (min))
Procedure: To study the stability of the test compounds in normal mouse kidney homogenate.
1. Before the experiment, the frozen kidney homogenate was thawed in a 37° C. water bath.
2. Test compounds: 10 mM stock solution was diluted with DMSO to prepare 1 mM intermediate solution;
3. test compounds: 1 mM intermediate solution was diluted with DMSO to prepare 50 μM dosing solution;
4. at each time point (0, 10, 30, 60, 120, 180, 240 min), 100 μL of 4% H3PO4 and 800 μL of stop solution were added to precipitate the protein, and mixed thoroughly.
5. The samples were centrifuged at 4000 rpm for 10 min, and 100 μL of supernatant was taken from each well to the plate. The samples were shaken at 800 rpm for approximately 10 min before submitting for LC-MS/MS test.

Work on `CC[C@H](C)[C@H](NC(=O)[C@H](CC(C)C)NC(=O)[C@H](Cc1c[nH]c2ccccc12)NC(=O)[C@@H]1CCC(=O)NCCCC[C@H](NC(=O)[C@H](CCC(N)=O)NC(=O)[C@H](C)NC(=O)[C@H](CCCCNC(=O)COCCOCCNC(=O)COCCOCCNC(=O)CC[C@H](NC(=O)CCCCCCCCCCCCCCCCCCC(=O)O)C(=O)O)NC(=O)[C@H](CCCCN)NC(=O)[C@H](CC(=O)O)NC(=O)[C@H](CC(C)C)NC(=O)C(C)(C)NC(=O)[C@@H](NC(=O)[C@H](CO)NC(=O)[C@H](Cc2ccc(O)cc2)NC(=O)[C@H](CC(=O)O)NC(=O)[C@H](CO)NC(=O)[C@@H](NC(=O)[C@H](Cc2ccccc2)NC(=O)[C@@H](NC(=O)CNC(=O)[C@H](CCC(=O)O)NC(=O)C(C)(C)NC(=O)[C@@H](N)Cc2ccc(O)cc2)[C@@H](C)O)[C@@H](C)O)[C@@H](C)CC)C(=O)N[C@@H](CCC(=O)O)C(=O)N[C@@H](Cc2ccccc2)C(=O)N[C@@H](C(C)C)C(=O)N1)C(=O)N[C@@H](C)C(=O)NCC(=O)NCC(=O)N1CCC[C@H]1C(=O)N[C@@H](CO)C(=O)N[C@@H](CO)C(=O)NCC(=O)N[C@@H](C)C(=O)N1CCC[C@H]1C(=O)N1CCC[C@H]1C(=O)N1CCC[C@H]1C(=O)N[C@@H](CO)C(N)=O` [WX-005] (H-Y[Aib]EGTFTSDYSI[Aib]LDKK([AEEA-AEEA-γGlu-C20 diacid])AQKEFVEWLIAGGPSSGAPPPS-NH2; lactam 20-24) yielded an EC50 (GLP-1R) of 0.042 nM, an EC50 (GIPR) of 0.22 nM and a Cmax [1] of 31 nM. It also gave a Tmax [1] of 40 h, a half-life ([1]; read-out: Half-life T1/2 (converted)) of 4.08 days and an AUC(0-t) ([1]; read-out: SC Concentration Integral AUC0-240 h) of 4.55 µM·h. For the same molecule, the half-life at 2 μM [2] was > 289 min, the half-life at 2 μM [3] was > 289 min and the half-life [4] was 21 min.
